Data published in ChEMBL document CHEMBL5727115, “TYK2 inhibitors and uses thereof” (2019).

Target: Non-receptor tyrosine-protein kinase TYK2 (Homo sapiens, UniProt P29597)
Test: TYK2 JH2 Domain Binding Assay: Binding constants for compounds of the present invention against the JH2 domain were determined by the following protocol for a KINOMEscan® assay (DiscoveRx). A fusion protein of a partial length construct of human TYK2 (JH2domain-pseudokinase) (amino acids G556 to D888 based on reference sequence NP_003322.3) and the DNA binding domain of NFkB was expressed in transiently transfected HEK293 cells. From these HEK 293 cells, extracts were prepared in M-PER extraction buffer (Pierce) in the presence of Protease Inhibitor Cocktail Complete (Roche) and Phosphatase Inhibitor Cocktail Set II (Merck) per manufacturers' instructions. The TYK2 (JH2domain-pseudokinase) fusion protein was labeled with a chimeric double-stranded DNA tag containing the NFkB binding site (5′-GGGAATTCCC-3′ (SEQ ID NO: 1)) fused to an amplicon for qPCR readout, which was added directly to the expression extract (the final concentration of DNA-tag in the binding reaction is 0.1 nM).Streptavidin-coated magnetic beads (Dynal M280) were treated with a biotinylated small molecule ligand for 30 minutes at room temperature to generate affinity resins the binding assays. […]
Type: cell-based

Sequence of Non-receptor tyrosine-protein kinase TYK2 (P29597 whole entry, the tested form may be a part): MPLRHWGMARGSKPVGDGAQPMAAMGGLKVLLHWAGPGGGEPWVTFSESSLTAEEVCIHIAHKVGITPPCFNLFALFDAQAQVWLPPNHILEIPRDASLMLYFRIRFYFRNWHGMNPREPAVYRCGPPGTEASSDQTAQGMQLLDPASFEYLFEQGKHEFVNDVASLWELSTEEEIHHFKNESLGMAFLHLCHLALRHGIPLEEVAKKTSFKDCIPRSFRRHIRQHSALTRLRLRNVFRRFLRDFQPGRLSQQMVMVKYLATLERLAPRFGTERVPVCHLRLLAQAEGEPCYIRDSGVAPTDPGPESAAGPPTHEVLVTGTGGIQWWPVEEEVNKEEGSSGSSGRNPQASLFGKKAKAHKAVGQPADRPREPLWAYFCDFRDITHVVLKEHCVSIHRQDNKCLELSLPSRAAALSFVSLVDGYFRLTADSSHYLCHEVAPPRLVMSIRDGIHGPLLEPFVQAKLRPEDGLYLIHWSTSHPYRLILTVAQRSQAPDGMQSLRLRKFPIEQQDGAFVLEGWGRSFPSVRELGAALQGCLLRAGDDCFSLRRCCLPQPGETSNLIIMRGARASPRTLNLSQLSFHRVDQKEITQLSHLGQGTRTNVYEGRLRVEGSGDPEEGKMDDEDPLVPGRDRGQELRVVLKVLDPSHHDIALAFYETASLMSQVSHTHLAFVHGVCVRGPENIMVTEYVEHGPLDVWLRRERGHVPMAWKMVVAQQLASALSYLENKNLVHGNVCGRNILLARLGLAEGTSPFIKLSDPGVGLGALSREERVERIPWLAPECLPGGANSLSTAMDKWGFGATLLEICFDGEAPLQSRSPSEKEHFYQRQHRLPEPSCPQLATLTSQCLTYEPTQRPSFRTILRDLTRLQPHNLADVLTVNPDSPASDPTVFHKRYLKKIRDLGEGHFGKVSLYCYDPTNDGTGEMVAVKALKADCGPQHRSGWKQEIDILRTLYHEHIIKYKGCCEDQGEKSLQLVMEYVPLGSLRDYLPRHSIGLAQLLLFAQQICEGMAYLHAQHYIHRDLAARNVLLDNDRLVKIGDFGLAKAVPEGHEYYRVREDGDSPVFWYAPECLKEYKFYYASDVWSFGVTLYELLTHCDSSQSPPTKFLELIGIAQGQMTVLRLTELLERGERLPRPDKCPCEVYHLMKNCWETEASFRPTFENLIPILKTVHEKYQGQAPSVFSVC

Kd: > 0.01 µM
SMILES: COc1cc(Cl)ccc1Nc1cc(Nc2cc(C)ccn2)nc2[nH]n(C)c(=O)c12
